From paper PMC10518255, “A first-in-class pan-lysyl oxidase inhibitor impairs stromal remodeling and enhances gemcitabine response and survival in pancreatic cancer” (Nature Cancer, 2023)
Values joined by “and” are separate entries in the source; they are usually repeats but may differ in a detail not shown here. Equal values may be shown once.

How the values were obtained:
KPC PDAC tumors = assay: Necrosis determined by H&E in end-point KPC tumors; assay type: in vivo; settings: KPC tumours at endpoint; one value per mouse, 8 mice per cohort scored (Extended Data 6J)
Experimental: All tissues or matrices were fixed in 10% buffered formalin and embedded in paraffin. The 4-μm sections of samples were deparaffinized with xylene and rehydrated in graded ethanol washes. H&E staining and counterstaining were performed on a Leica autostainer.
Extended Data Fig. 6 PXS-5505 in combination with gemcitabine in a KPC model. a. Quantification of proliferating cells (Ki67 positive nuclear staining) in KPC tumors at end point, treated as indicated. 5 fields of view (500 μm × 500 μm) per mouse and 10 mice per cohort were scored. […] Scale bars = 100 μm b. Quantification of percent coverage of αSMA positive staining in KPC tumors at end point, treated as indicated. 3 fields of view (1000 μm × 1000 μm) per mouse and 10 mice per cohort were scored. […] Scale bars = 100 μm c. Quantification of percent coverage of PDGFR-ß positive staining in KPC tumors at end point, treated as indicated. 3 fields of view (1000 μm × 1000 μm) per mouse and 10 mice per cohort were scored. […] Scale bars = 100 μm d. Quantification of pMLC2 positive staining in stromal regions of KPC tumors at end point, treated as indicated. 3 fields of view (500 μm × 500 μm) per mouse and 10 mice per cohort were scored. […] Quantification of tumor vasculature (CD31 positive staining) in KPC tumors at end point, treated as indicated. 3 fields of view (1000 μm × 1000 μm) per mouse and 10 mice per cohort were scored. […]

[1] = tested on: KPC CCs liver colonization; assay: Intrasplenic model of liver colonization, early administration of treatment; assay type: in vivo, mouse; settings: for metastases/mm2: early administration, individual animals; for number of metastatic foci in liver / size of metastatic foci in liver: treatment from day 1 until day 10
Experimental: Fig. 5 PXS-5505 administered in intrasplenic models of liver colonization. a, Schematic of the intrasplenic model of liver colonization with early administration of treatment. CCs were implanted into the spleen of BALB/c-Fox1nuAusb mice under anesthesia on day 0. Treatment with 0.9% saline (vehicle); twice-weekly Gem (100 mg kg^−1 i.p.) (Gem); daily PXS-5505 at 20 mg kg^−1 i.p. (PXS-5505) or daily PXS-5505 at 20 mg kg^−1 i.p. + twice-weekly Gem at 100 mg kg^−1 i.p. (PXS-5505 + Gem) was administered from day 1. At the end point (day 10) livers were collected and H&E-stained for scoring. Representative images of H&E-stained liver (taken from one biologically independent animal). Scale bar, 100 μm. b, Representative images of H&E-stained livers from each treatment group (n = 1 FOV taken from one biologically independent animal per group). Scale bars, 100 μm. c, Quantification of metastases per mm^2 (n = 9 biologically independent animals per group). Data are mean ± s.d. […] Data are mean ± s.d. Two-tailed P values were determined by an unpaired, nonparametric t-test with a Mann–Whitney U-test correction (comparison between two groups). e, Schematic of intrasplenic model of liver colonization with late administration of treatment. CCs were implanted into the spleen of BALB/c-Fox1nuAusb mice under anesthesia on day 0. Treatment with 0.9% saline (vehicle); twice-weekly Gem (100 mg kg^−1 i.p.) (Gem); daily PXS-5505 at 20 mg kg^−1 i.p. (PXS-5505); or daily PXS-5505 at 20 mg kg^−1 i.p. + three doses of Gem (100 mg kg^−1 i.p. (PXS-5505 + Gem) was administered from day 4. Representative images of H&E-stained liver (taken from one biologically independent animal). Scale bar, 100 μm. f, Quantification of metastases at endpoint (n = 10 biologically independent animals per treatment group, n = 5 biologically independent animals at day 4 for confirmation of overt metastases). Data are mean ± s.d. P values were determined by an unpaired, nonparametric t-test with a Mann–Whitney U-test correction (comparison between two groups). g, Representative images of H&E-stained livers from each treatment group. Scale bars, 100 μm. Source data
For the intrasplenic models, animals were randomized before receiving treatment. GLP-grade PXS-5505 (20 mg kg^−1) was administered daily i.p. (starting day 0 for the early stage and day 4 for the late stage) until the end point and gemcitabine (100 mg kg^−1) was administered on days 3, 6 and 9 for the early stage and days 5, 7 and 10 for the late stage.
KPC CCs (5 × 10^5 cells per mouse in 50 μl Hanks balanced saline solution) were slowly injected into the spleens of 8-week-old female BALB/c-Fox1nuAusb mice under anesthesia (isoflurane […], O2 1 l min^−1 with vacuum) as previous described. For the duration of the study mice were kept in conventional caging with environmental enrichment, access to standard chow, water ad libitum and 12-h light–dark cycle at ambient temperature and humidity. For intrasplenic studies, mice were culled at defined end points (10 d for early colonization studies and 11 d for late colonization studies). Animals with non-tumor-related complications that led to a premature end point were censored. At the end point, mice were imaged by whole-body bioluminescent imaging using an IVIS Spectrum (Caliper LS), culled and livers were removed for additional bioluminescent imaging before formalin fixing and paraffin embedding.
The 4-µm formalin-fixed paraffin-embedded (FFPE) sections were cut and stained for H&E following standard histopathology methodologies or stained for CK19 using the Bond RX H2(30) protocol detailed above. Whole liver sections were then digitized on an Aperio slide scanner for blinded analysis. The total number of liver metastases were quantified and determined using QuPath[57].

Compound | necrosis determined by H&E (KPC PDAC tumors) | metastases/mm2 [1] | number of metastatic foci in liver [1] | size of metastatic foci in liver [1]
Cl.Cl.NC/C=C(\F)CS(=O)(=O)c1cccc2cccnc12.O [PXS-5505, (Z)-3-fluoro-4-(quinolin-8-ylsulfonyl)but-2-en-1-amine dihydrochloride monohydrate] | 0 and 2.201 and 15.496 and 22.429 and 2.215 | 0.0002211 /mm2 and 8.732e-6 /mm2 and 2.758e-6 /mm2 and 0.0001431 /mm2 and 0.0002677 /mm2 and 0.0002826 /mm2 and 0.0003511 /mm2 and 0.0007717 /mm2 and 3.2079e-5 /mm2 | small decrease in number | not size of metastatic foci
Nc1ccn([C@@H]2O[C@H](CO)[C@@H](O)C2(F)F)c(=O)n1 [Gem, gemcitabine] | 0 and 7.986 and 6.976 and 4.928 | 1.138e-5 /mm2 and 9.508e-5 /mm2 and 3.779e-5 /mm2 and 0 /mm2 and 1.36e-5 /mm2 and 7.872e-6 /mm2 and 6.17e-6 /mm2 | fewer | smaller
